Experimental data published in patent US9662323B2, “Compounds having muscarinic receptor antagonist and beta2 adrenergic receptor agonist activity” (CHIESI FARMACEUTICI S.p.A., priority 2015, dated 2017).
Where two headings read alike, the source gives them in different places.

Experiments:
Human M3 receptor = molecular target: T1, Human M3 receptor (Homo sapiens, UniProt P20309); assay: M3 Receptor Radioligand Binding Assay
T1 construct: purchased Perkin Elmer
Outline: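 Radioligand binding with 0.5% (v/v) final DMSO, incubated 2 h at room temperature with shaking. Membranes were collected on GF/C filters pre-treated with 0.5% polyethyleneimine, washed four times with assay buffer, and counted by scintillation.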

Human β2 adrenoceptor = molecular target: T2, Human β2 adrenoceptor (Homo sapiens, UniProt P07550); assay: β2 Adrenoceptor Radioligand Binding Assay
T2 construct: purchased Perkin Elmer
T2 sequence (P07550 whole entry): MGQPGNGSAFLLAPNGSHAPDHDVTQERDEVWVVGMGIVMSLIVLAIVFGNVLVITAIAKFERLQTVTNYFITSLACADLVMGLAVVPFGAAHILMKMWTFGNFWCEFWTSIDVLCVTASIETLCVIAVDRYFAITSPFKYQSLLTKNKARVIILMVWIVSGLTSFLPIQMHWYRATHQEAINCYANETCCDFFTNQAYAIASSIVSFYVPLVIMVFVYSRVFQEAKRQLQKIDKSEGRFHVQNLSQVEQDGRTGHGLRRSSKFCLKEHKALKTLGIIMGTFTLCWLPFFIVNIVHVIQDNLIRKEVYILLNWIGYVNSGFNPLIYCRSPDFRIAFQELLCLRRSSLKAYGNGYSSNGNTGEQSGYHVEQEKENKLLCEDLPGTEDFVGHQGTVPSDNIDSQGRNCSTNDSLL
Outline: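 Membranes were incubated 1 h at room temperature in 25 mM HEPES, 0.5% BSA, 1 mM EDTA, 0.02% ascorbic acid, pH 7.4, with 0.5% DMSO final. Bound radioligand was collected by GF/C filtration and counted by scintillation. IC50 values from competition curves were converted to Ki by Cheng–Prusoff.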

[1] = human M3 receptor membranes, [3H]-N-methyl scopolamine, read-out: M3 binding affinity (Ki class)
[2] = human β2 adrenoceptor membranes, 125-I Cyanopindolol, read-out: B2 binding affinity (Ki class)

T1 sequence (P20309 whole entry): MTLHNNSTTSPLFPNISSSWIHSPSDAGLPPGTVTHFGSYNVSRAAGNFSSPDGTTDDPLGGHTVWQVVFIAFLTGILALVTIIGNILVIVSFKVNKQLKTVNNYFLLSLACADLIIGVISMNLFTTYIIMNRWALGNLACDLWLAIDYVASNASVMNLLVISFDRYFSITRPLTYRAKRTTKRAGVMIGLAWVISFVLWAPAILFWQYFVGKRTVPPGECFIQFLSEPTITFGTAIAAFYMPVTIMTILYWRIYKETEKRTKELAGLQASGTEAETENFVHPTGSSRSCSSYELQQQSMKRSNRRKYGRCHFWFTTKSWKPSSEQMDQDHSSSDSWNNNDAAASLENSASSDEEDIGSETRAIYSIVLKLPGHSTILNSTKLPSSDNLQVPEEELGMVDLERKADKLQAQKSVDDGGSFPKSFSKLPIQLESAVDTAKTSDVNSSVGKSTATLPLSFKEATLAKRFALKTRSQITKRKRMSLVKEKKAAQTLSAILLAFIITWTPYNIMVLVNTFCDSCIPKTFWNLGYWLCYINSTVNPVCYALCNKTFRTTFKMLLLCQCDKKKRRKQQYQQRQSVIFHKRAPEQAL

O=C(c1ccc(CN(Cc2ccc(CNC[C@H](O)c3ccc(O)c4[nH]c(=O)ccc34)cc2)C(=O)c2ccccc2)cc1)N1CCC(C(=O)O[C@H]2CN3CCC2CC3)(c2ccccc2)CC1 [Compound 59, (R)-Quinuclidin-3-yl 1-(4-((N-(4-((((R)-2-hydroxy-2-(8-hydroxy-2-oxo-1,2-dihydroquinolin-5-yl)ethyl)amino)methyl)benzyl)benzamido)methyl)benzoyl)-4-phenylpiperidine-4-carboxylate]
Ki (Human M3 receptor): < 1 nM | Ki (Human β2 adrenoceptor): > 10 nM

O=C(c1ccc(CN(Cc2ccc(CNC[C@H](O)c3ccc(O)c4[nH]c(=O)ccc34)cc2)C(=O)C2CC2)cc1)N1CCC(C(=O)O[C@H]2CN3CCC2CC3)(c2ccccc2)CC1 [Compound 60, (R)-Quinuclidin-3-yl 1-(4-((N-(4-((((R)-2-hydroxy-2-(8-hydroxy-2-oxo-1,2-dihydroquinolin-5-yl)ethyl)amino)methyl)benzyl)cyclopropanecarboxamido)-methyl)benzoyl)-4-phenylpiperidine-4-carboxylate]
Ki (Human M3 receptor; [1]): < 1 nM | Ki (Human β2 adrenoceptor; [2]): 1 to 10 nM

O=C(c1ccc(CN(Cc2ccc(CNC[C@H](O)c3ccc(O)c4[nH]c(=O)ccc34)cc2)S(=O)(=O)c2ccccc2)cc1)N1CCC(C(=O)O[C@H]2CN3CCC2CC3)(c2ccccc2)CC1 [Compound 61, (R)-Quinuclidin-3-yl 1-(4-((N-(4-((((R)-2-hydroxy-2-(8-hydroxy-2-oxo-1,2-dihydroquinolin-5-yl)ethyl)amino)methyl)benzyl)phenylsulfonamido)-methyl)benzoyl)-4-phenylpiperidine-4-carboxylate]
Ki (Human M3 receptor): < 1 nM | Ki (Human β2 adrenoceptor): > 10 nM

COC(=O)N(Cc1ccc(CNC[C@H](O)c2ccc(O)c3[nH]c(=O)ccc23)cc1)Cc1ccc(C(=O)N2CCC(C(=O)O[C@H]3CN4CCC3CC4)(c3ccccc3)CC2)cc1 [Compound 62, (R)-Quinuclidin-3-yl 1-(4-(((4-((((R)-2-hydroxy-2-(8-hydroxy-2-oxo-1,2-dihydroquinolin-5-yl)ethyl)amino)methyl)benzyl)(methoxycarbonyl)amino)-methyl)benzoyl)-4-phenylpiperidine-4-carboxylate]
Ki (Human M3 receptor; [1]): < 1 nM | Ki (Human β2 adrenoceptor; [2]): 1 to 10 nM

CNC(=O)N(Cc1ccc(CNC[C@H](O)c2ccc(O)c3[nH]c(=O)ccc23)cc1)Cc1ccc(C(=O)N2CCC(C(=O)O[C@H]3CN4CCC3CC4)(c3ccccc3)CC2)cc1 [Compound 63, (R)-Quinuclidin-3-yl 1-(4-((1-(4-((((R)-2-hydroxy-2-(8-hydroxy-2-oxo-1,2-dihydroquinolin-5-yl)ethyl)amino)methyl)benzyl)-3-methylureido)methyl)benzoyl)-4-phenylpiperidine-4-carboxylate]
Ki (Human M3 receptor; [1]): < 1 nM | Ki (Human β2 adrenoceptor; [2]): 1 to 10 nM

O=C(c1ccc(COCc2ccc(CNC[C@H](O)c3ccc(O)c4[nH]c(=O)ccc34)cc2)cc1)N1CCC(C(=O)O[C@H]2CN3CCC2CC3)(c2ccccc2)CC1 [Compound 64, (R)-Quinuclidin-3-yl 1-(4-(((4-((((R)-2-hydroxy-2-(8-hydroxy-2-oxo-1,2-dihydroquinolin-5-yl)ethyl)amino)methyl)benzyl)oxy)methyl)benzoyl)-4-phenylpiperidine-4-carboxylate]
Ki (Human M3 receptor; [1]): < 1 nM | Ki (Human β2 adrenoceptor; [2]): 1 to 10 nM
